Where “and” joins values, the source holds several entries; their conditions need not be identical. Equal entries are not always repeated. Where two headings read alike, the source gives them in different places.
Columns and labels:
Test in all cases: GloSensor cAMP assay, antagonism of PGE2-induced cAMP
Type in all cases: cell-based
EP2 M116A = biological target: T1, EP2 M116A (Homo sapiens, UniProt P43116, M116A); settings: for cAMP activity (∆pIC50 from EP2 WT): TG6-129, M116A
T1 construct: The full-length EP2 or EP4 was cloned into the pcDNA3.1 vector; FLAG (N); expressed in transfected cells; host or cells: AD293 cells
Procedure: (§1) The full-length EP2 or EP4 was cloned into the pcDNA3.1 vector (Invitrogen), incorporating an N-terminal FLAG tag. AD293 cells were seeded in six-well plates containing DMEM supplemented with 10% dialyzed FBS 1 day prior to transfection. Following overnight growth, cells were transfected with a 1:1 ratio of receptor construct and GloSensor22F cAMP biosensor (Promega) plasmids.
(§2) Twenty-four hours post-transfection, the cells were transferred to CO2-independent media containing 2% GloSensor cAMP Reagent (Promega) and distributed into 384-well assay plates at a density of 4000 cells per well in 10 μL. […] The plates were then incubated at 37 °C for an additional hour before luminescence measurements were taken using an EnVision plate reader.
(§3) Data analysis was performed using GraphPad Prism software v8.0.1. A nonlinear regression analysis, employing a sigmoidal dose–response model, was conducted to determine the Emax values and half-maximum inhibitory concentrations (IC50) for each compound tested.

EP2 S305A = biological target: T2, EP2 S305A (Homo sapiens, UniProt P43116, S305A); settings: for cAMP activity (∆pIC50 from EP2 WT): TG6-129, S305A
T2 construct: The full-length EP2 or EP4 was cloned into the pcDNA3.1 vector; FLAG (N); expressed in transfected cells; host or cells: AD293 cells
Procedure: as §1, §2, §3

EP2 S308A = biological target: T3, EP2 S308A (Homo sapiens, UniProt P43116, S308A); settings: for cAMP activity (∆pIC50 from EP2 WT): TG6-129, S308A
T3 construct: The full-length EP2 or EP4 was cloned into the pcDNA3.1 vector; FLAG (N); expressed in transfected cells; host or cells: AD293 cells
Procedure: as §1, §2, §3

EP2 S86A = biological target: T4, EP2 S86A (Homo sapiens, UniProt P43116, S86A); settings: for cAMP activity (∆pIC50 from EP2 WT): TG6-129, S86A
T4 construct: The full-length EP2 or EP4 was cloned into the pcDNA3.1 vector; FLAG (N); expressed in transfected cells; host or cells: AD293 cells
Procedure: as §1, §2, §3

EP2 T82A = biological target: T5, EP2 T82A (Homo sapiens, UniProt P43116, T82A); settings: for cAMP activity (∆pIC50 from EP2 WT): TG6-129, T82A
T5 construct: The full-length EP2 or EP4 was cloned into the pcDNA3.1 vector; FLAG (N); expressed in transfected cells; host or cells: AD293 cells
Procedure: as §1, §2, §3

EP2 W186A = biological target: T6, EP2 W186A (Homo sapiens, UniProt P43116, W186A)
T6 construct: The full-length EP2 or EP4 was cloned into the pcDNA3.1 vector; FLAG (N); expressed in transfected cells; host or cells: AD293 cells
Procedure: as §1, §2, §3

EP4 S319A = biological target: T7, EP4 S319A (Homo sapiens, UniProt P35408, S319A); settings: for cAMP activity (∆pIC50 from EP4 WT): TG6-129, S319A
T7 construct: The full-length EP2 or EP4 was cloned into the pcDNA3.1 vector (Invitrogen), incorporating an N-terminal FLAG tag; expressed in transfected cells; host or cells: AD293
Procedure: as §1, §2, §3

EP4 V320A = biological target: T8, EP4 V320A (Homo sapiens, UniProt P35408, V320A)
T8 construct: The full-length EP2 or EP4 was cloned into the pcDNA3.1 vector (Invitrogen), incorporating an N-terminal FLAG tag; expressed in transfected cells; host or cells: AD293
Procedure: as §1, §2, §3

[1] = 1 h, TG6-129 log([M]) -6, read-out: % cAMP activity (normalized to WT)
[2] = 1 h, TG6-129 log([M]) -7, read-out: % cAMP activity (normalized to WT)
[3] = 1 h, TG6-129 log([M]) -9, read-out: % cAMP activity (normalized to WT)
[4] = 1 h, TG6-129 log([M]) -11, read-out: % cAMP activity (normalized to WT)
[5] = 1 h, TG6-129 log([M]) -12, read-out: % cAMP activity (normalized to WT)
[6] = 1 h, TG6-129 log([M]) -10, read-out: % cAMP activity (normalized to WT)
[7] = 1 h, TG6-129 log([M]) -8, read-out: % cAMP activity (normalized to WT)
[8] = 1 h, TG6-129 log([M]) -4.70, read-out: % cAMP activity (normalized to WT)
[9] = 1 h, TG6-129 log([M]) -5.40, read-out: % cAMP activity (normalized to WT)
[10] = 1 h, TG6-129 log([M]) -6.10, read-out: % cAMP activity (normalized to WT)
[11] = 1 h, TG6-129 log([M]) -6.80, read-out: % cAMP activity (normalized to WT)

T5 sequence (P43116 whole entry T82A): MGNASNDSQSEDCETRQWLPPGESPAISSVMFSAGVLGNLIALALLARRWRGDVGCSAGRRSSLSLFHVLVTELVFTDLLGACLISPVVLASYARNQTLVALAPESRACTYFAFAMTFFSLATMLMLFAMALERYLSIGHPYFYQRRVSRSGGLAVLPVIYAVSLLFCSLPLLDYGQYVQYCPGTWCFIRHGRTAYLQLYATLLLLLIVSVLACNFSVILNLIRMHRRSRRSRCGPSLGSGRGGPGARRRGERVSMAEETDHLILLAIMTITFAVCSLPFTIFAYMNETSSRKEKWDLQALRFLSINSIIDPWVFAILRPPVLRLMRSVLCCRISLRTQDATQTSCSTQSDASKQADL
T7 sequence (P35408 whole entry S319A): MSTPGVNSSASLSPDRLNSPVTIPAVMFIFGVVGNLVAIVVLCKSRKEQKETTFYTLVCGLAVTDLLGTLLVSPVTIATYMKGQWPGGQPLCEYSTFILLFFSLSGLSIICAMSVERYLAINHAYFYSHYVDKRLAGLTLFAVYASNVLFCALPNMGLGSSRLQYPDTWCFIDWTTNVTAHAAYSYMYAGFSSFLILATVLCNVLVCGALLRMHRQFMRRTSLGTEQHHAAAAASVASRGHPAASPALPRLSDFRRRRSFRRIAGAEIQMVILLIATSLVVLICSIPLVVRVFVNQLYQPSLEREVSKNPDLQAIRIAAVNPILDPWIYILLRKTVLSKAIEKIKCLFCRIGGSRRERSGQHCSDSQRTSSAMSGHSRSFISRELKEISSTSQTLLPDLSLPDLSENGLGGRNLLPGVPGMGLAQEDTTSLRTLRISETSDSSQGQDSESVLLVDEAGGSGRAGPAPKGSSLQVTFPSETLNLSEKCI
T3 sequence (P43116 whole entry S308A): as the sequence (P43116 whole entry T82A) above, with A82T, S308A counted along it
T4 sequence (P43116 whole entry S86A): as the sequence (P43116 whole entry T82A) above, with A82T, S86A counted along it
T2 sequence (P43116 whole entry S305A): as the sequence (P43116 whole entry T82A) above, with A82T, S305A counted along it
T1 sequence (P43116 whole entry M116A): as the sequence (P43116 whole entry T82A) above, with A82T, M116A counted along it
T6 sequence (P43116 whole entry W186A): as the sequence (P43116 whole entry T82A) above, with A82T, W186A counted along it
T8 sequence (P35408 whole entry V320A): as the sequence (P35408 whole entry S319A) above, with A319S, V320A counted along it

Structure (SMILES): CCc1nnc(NS(=O)(=O)c2ccc(NC(=S)NC(=O)/C=C/c3ccc(F)cc3)cc2)s1 [TG6-129]
- IC50 (EP2 M116A): 513 nM
- cAMP activity (∆pIC50 from EP2 WT) (EP2 M116A; Mean): -0.947
- cAMP activity (∆pIC50 from EP2 WT) (EP2 M116A; single experiments 1st-3rd): -0.910 and -0.955 and -0.975
- IC50 (EP2 S305A): 28.8 nM
- remaining activity at 1 µM (EP2 S305A; [1]): 9.02%
- remaining activity at 0.1 µM (EP2 S305A; [2]): 12.5%
- remaining activity at 0.001 µM (EP2 S305A; [3]): 44.8%
- remaining activity at 10 pM (EP2 S305A; [4]): 67.8%
- remaining activity at 1 pM (EP2 S305A; [5]): 54.8%
- cAMP activity (∆pIC50 from EP2 WT) (EP2 S305A; Mean): 0.475
- cAMP activity (∆pIC50 from EP2 WT) (EP2 S305A; single experiments 1st-3rd): 0.478 and 0.360 and 0.586
- IC50 (EP2 S308A): 209 nM
- remaining activity at 0.1 µM (EP2 S308A; [2]): 80.3%
- remaining activity at 0.0001 µM (EP2 S308A; [6]): 108%
- remaining activity at 10 pM (EP2 S308A; [4]): 110%
- cAMP activity (∆pIC50 from EP2 WT) (EP2 S308A; Mean): -0.534
- cAMP activity (∆pIC50 from EP2 WT) (EP2 S308A; single experiments 1st-3rd): -0.496 and -0.568 and -0.537
- IC50 (EP2 S86A): 339 nM
- remaining activity at 0.01 µM (EP2 S86A; [7]): 39.3%
- remaining activity at 0.0001 µM (EP2 S86A; [6]): 51.4%
- remaining activity at 1 pM (EP2 S86A; [5]): 49.3%
- cAMP activity (∆pIC50 from EP2 WT) (EP2 S86A; Mean): -0.714
- cAMP activity (∆pIC50 from EP2 WT) (EP2 S86A; single experiments 1st-3rd): -0.638 and -0.681 and -0.823
- IC50 (EP2 T82A): 74.1 nM
- remaining activity at 0.01 µM (EP2 T82A; [7]): 28.8%
- remaining activity at 0.001 µM (EP2 T82A; [3]): 38.9%
- remaining activity at 10 pM (EP2 T82A; [4]): 40.1%
- remaining activity at 1 pM (EP2 T82A; [5]): 33.8%
- cAMP activity (∆pIC50 from EP2 WT) (EP2 T82A; Mean): -0.177
- cAMP activity (∆pIC50 from EP2 WT) (EP2 T82A; single experiments 1st-3rd): -0.228 and -0.186 and -0.118
- IC50 (EP2 W186A): 2000 nM
- remaining activity at 1 µM (EP2 W186A; [1]): 12.3%
- remaining activity at 0.1 µM (EP2 W186A; [2]): 14.9%
- remaining activity at 0.01 µM (EP2 W186A; [7]): 13.9%
- remaining activity at 0.001 µM (EP2 W186A; [3]): 12.1%
- remaining activity at 0.0001 µM (EP2 W186A; [6]): 12.9%
- remaining activity at 10 pM (EP2 W186A; [4]): 15.2%
- remaining activity at 1 pM (EP2 W186A; [5]): 12.4%
- cAMP activity (∆pIC50 from EP2 WT) (EP2 W186A; TG6-129, W186A, Mean): -1.790
- IC50 (EP4 S319A): 20000 nM
- remaining activity at 100 µM (EP4 S319A; 1 h, TG6-129 log([M]) -4.00, read-out: % cAMP activity (normalized to WT)): 15.3%
- remaining activity at […] (EP4 S319A; [8]): 26.4%
- remaining activity at […] (EP4 S319A; [9]): 52.2%
- remaining activity at […] (EP4 S319A; [10]): 50.8%
- remaining activity at 0.1585 µM (EP4 S319A; [11]): 53.5%
- remaining activity at 0.03236 µM (EP4 S319A; 1 h, TG6-129 log([M]) -7.49, read-out: % cAMP activity (normalized to WT)): 57.1%
- remaining activity at 0.006457 µM (EP4 S319A; 1 h, TG6-129 log([M]) -8.19, read-out: % cAMP activity (normalized to WT)): 56.3%
- remaining activity at 0.001288 µM (EP4 S319A; 1 h, TG6-129 log([M]) -8.89, read-out: % cAMP activity (normalized to WT)): 49.4%
- cAMP activity (∆pIC50 from EP4 WT) (EP4 S319A; Mean): -0.299
- cAMP activity (∆pIC50 from EP4 WT) (EP4 S319A; single experiments 1st-3rd): -0.429 and -0.317 and -0.151
- IC50 (EP4 V320A): 13500 nM
- remaining activity at […] (EP4 V320A; [8]): 26.1%
- remaining activity at […] (EP4 V320A; [9]): 66.6%
- remaining activity at […] (EP4 V320A; [10]): 66.9%
- remaining activity at 0.1585 µM (EP4 V320A; [11]): 68%

— publication PMC12669672, “Structural insights into selective and dual antagonism of EP2 and EP4 prostaglandin receptors” (The EMBO Journal, 2025)
